Measurements: patent US7910588B2, “5-HT7 receptor antagonists” (Eli Lilly and Company, priority 2007, dated 2011)

Columns and labels:
5-HT2A = biological target: T1, 5-HT2A (Homo sapiens, UniProt P28223); assay: Radioligand binding assay, 5-HT2A
T1 construct: expressed in transfected cells
Method: (§1) [^3H] […] The reactions are incubated at room temperature for 3 hr. and then counted in a Trilux Microbeta™ scintillation counter to detect receptor-bound radioligand. Binding data are analyzed by computer-assisted 4 parameter fit analysis (ID Business Solutions Ltd, Guildford, Surrey, UK). […]
(§2) Affinity for other serotonin receptor subtypes as well as for alpha 1 & 2 adrenergic receptors can readily be determined by modification of the above described radioligand receptor binding assay using membranes derived from cells stably expressing the desired receptor subtype including the 5-HT1A, 5-HT1B, and 5-HT1D subtypes, as well as the 5-HT2A, 5-HT2B, 5-HT2C, 5-HT4, 5-HT7, and 5-HT6 receptor subtypes. […]

5-HT7 receptor = biological target: T2, 5-HT7 receptor (Homo sapiens, UniProt P34969); assay: Functional antagonist assay: measurement of cAMP formation; assay type: cell-based
T2 construct: expressed in transfected cells
Method: For cAMP functional assays, the 5-HT7-expressing cells from above are grown in 150 cm^2 flasks and processed essentially as follows. The media is aspirated from the flasks and cells are washed with 1 mL PBS. The cells are released from the flask surface using enzyme free cell dissociation solution (Specialty media (www.chemicon.com) CAT#S-004-B) and resuspended in complete media. A sample of the cells is counted and the remainder is centrifuged as above for 3 min. The resulting cell pellet is resuspended in PBS at a concentration of 1×10^6 cells per mL and used directly in the cAMP assay as described.
The 5-HT7 receptor is functionally coupled to a G-protein as measured by the ability of serotonin and serotonergic drugs to stimulate cAMP production in CHO cells transfected with the 5-HT7 receptor. (Ruat, et al., Proceedings of the National Academy of Sciences (USA), 90:8547-8551, 1993.) Accordingly, functional receptor activity can be measured by measuring adenylate cyclase activity using a commercially available cell-based, homogeneous, time resolved fluorescence assay kit, as for example the kit produced by Cisbio-US, Inc. (Bedford, Mass.). Essentially, and using the protocol and reagents provided by the manufacturer, approximately 20,000 human 5-HT7 receptor-expressing AV-12 cells (as described above) are used with test compound dose concentrations in the range described for the binding assay. […] A cAMP standard curve is also run in every experiment. After the assay plates are read in an Envision™ instrument (Perkin-Elmer, Wellesley Mass.), the data are normalized to the standard curve and converted to percent inhibition for data analysis as described above for the receptor binding assay results. The Kb (nM) is calculated as a measure of the antagonist potency of the compound. Preferred compounds are those having percent inhibition >75%. Still other preferred compounds are those having Kb<50 nM.

5-HT5 = biological target: T3, 5-HT5 (Homo sapiens, UniProt P47898); assay: Radioligand binding assay, 5-HT5
T3 construct: expressed in transfected cells
Method: as §1, §2

alpha 1 adrenergic = assay: Radioligand binding assay, alpha 1 adrenergic
Method: as §1, §2

5-HT6 = biological target: T4, 5-HT6 (Homo sapiens, UniProt P50406); assay: Radioligand binding assay, 5-HT6
T4 construct: expressed in transfected cells
Method: as §1, §2

T2 sequence (P34969 whole entry): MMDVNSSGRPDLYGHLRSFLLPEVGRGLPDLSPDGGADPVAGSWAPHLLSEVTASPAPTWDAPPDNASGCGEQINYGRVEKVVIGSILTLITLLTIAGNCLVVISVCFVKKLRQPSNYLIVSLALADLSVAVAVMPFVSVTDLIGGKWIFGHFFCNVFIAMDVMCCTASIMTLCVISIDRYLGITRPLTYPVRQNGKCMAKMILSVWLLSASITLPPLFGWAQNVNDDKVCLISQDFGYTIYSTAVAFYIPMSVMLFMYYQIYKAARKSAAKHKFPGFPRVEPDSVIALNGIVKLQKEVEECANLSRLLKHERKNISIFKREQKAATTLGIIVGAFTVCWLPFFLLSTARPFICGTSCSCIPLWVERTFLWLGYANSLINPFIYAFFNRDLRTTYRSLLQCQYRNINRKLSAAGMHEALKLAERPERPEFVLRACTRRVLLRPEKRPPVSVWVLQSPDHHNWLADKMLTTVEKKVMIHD
T3 sequence (P47898 whole entry): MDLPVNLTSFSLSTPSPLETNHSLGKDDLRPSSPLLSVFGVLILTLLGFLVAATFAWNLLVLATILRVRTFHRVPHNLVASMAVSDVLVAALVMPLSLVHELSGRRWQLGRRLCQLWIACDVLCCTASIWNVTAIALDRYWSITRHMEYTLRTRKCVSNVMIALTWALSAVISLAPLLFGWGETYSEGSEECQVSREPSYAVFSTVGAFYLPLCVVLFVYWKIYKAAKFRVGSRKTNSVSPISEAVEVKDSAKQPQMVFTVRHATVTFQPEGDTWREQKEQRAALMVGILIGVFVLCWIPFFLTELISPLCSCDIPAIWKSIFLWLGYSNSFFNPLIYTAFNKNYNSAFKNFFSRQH
T1 sequence (P28223 whole entry, species assumed): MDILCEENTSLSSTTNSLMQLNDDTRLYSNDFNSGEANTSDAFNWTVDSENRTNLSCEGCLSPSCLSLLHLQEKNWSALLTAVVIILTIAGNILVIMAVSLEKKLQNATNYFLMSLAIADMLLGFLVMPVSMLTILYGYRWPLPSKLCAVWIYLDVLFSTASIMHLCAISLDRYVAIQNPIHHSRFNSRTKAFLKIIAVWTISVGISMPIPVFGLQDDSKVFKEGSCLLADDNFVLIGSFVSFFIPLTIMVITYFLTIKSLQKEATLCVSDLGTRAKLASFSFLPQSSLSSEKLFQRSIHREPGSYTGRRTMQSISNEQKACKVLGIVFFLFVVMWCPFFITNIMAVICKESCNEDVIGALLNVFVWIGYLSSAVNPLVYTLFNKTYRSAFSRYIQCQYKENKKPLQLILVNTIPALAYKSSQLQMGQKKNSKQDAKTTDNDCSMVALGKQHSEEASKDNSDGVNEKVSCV
T4 sequence (P50406 whole entry, species assumed): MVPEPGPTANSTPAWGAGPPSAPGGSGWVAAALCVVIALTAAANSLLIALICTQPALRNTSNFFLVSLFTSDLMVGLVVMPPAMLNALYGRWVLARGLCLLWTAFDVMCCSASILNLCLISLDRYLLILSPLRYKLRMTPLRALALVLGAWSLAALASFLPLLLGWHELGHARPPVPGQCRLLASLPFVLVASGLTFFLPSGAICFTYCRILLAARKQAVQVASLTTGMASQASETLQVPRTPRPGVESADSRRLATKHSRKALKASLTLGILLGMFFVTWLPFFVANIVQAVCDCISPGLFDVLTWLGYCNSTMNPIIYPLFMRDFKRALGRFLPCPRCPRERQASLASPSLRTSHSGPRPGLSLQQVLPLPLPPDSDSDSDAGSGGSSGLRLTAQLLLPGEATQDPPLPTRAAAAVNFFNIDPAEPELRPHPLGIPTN

## CCn1ncc(CN2CCN(c3cccnc3N3CCC(O)CC3)CC2)c1C.Cl [Example 1, 3′-[4-(1-Ethyl-5-methyl-1H-pyrazol-4-ylmethyl)-piperazin-1-yl]-3,4,5,6-tetrahydro-2H-[1,2]bipyridinyl-4-ol hydrochloride]
5-HT2A
  Ki: > 7.47 µM
5-HT7 receptor; antagonist potency, cAMP formation in 5-HT7 receptor-expressing AV-12 cells
  Kb: ~0.00297 µM
5-HT7 receptor; cAMP formation in 5-HT7 receptor-expressing AV-12 cells
  antagonist character: full antagonist
5-HT7 receptor; percent inhibition of cAMP formation in 5-HT7 receptor-expressing AV-12 cells
  inhibition: about 108%
5-HT5
  Ki: 4.55 µM
Alpha 1 adrenergic
  Ki: 1.38 µM
5-HT6
  Ki: > 5.83 µM
